Test results as given in patent publication US20130274338A1, “PHARMACEUTICAL COMPOSITIONS COMPRISING DGLA, 15-OHEPA, AND/OR 15-HETRE AND METHODS OF REDUCING SEBUM PRODUCTION USING SAME” (priority 2012, published 2013).
Values after ≈ are worked out from the molar mass of the structure shown.

How the values were obtained:
[1] = system: immortalized sebocyte cell line; test: Sebocyte proliferation: viability (M.T.T. test) and morphology after 72 hours; format: cell-based, human
From the text: In an embodiment, the pharmacodynamics of a composition comprising DGLA, 15-OHEPA, or 15-HETrE as disclosed herein may be examined using a model of sebum production. In an embodiment, the effects of a composition comprising DGLA, 15-OHEPA, or 15-HETrE as disclosed herein on the proliferation and/or differentiation of sebocytes serves as a model for the pharmacodynamics on sebum production (see, e.g., U.S. Patent Application Publication No. US 2010/0278948, the contents of which are incorporated by reference). In an exemplary method, primary sebocytes are isolated from skin tissue (e.g., human scalp tissue). The isolated primary sebocytes are then immortalized, and the resulting cell line is divided into discrete cultures. Discrete cultures can then be treated with various concentrations of a composition comprising DGLA, 15-OHEPA, or 15-HETrE as disclosed herein. For comparison, a negative control (e.g., a culture of an immortalized sebocyte cell line left untreated) and/or a positive control (e.g., treatment of an immortalized sebocyte cell line with a compound known to inhibit sebocyte growth such as isotretinoin) can be maintained alongside of the test cultures. In an embodiment, a pharmacodynamic assay is maintained for an amount of time suitable to observe differences (if any) between the various immortalized sebocyte cell cultures, for example less than about 24 hours, about 24 hours, about 48 hours, about 72 hours, about 96 hours, about 120 hours, about 144 hours, more than about 144 hours, etc. The effect of treating an immortalized sebocyte cell culture with a given composition or compound can be determined by quantifying, for example and without limitation, the viability of the cultures (e.g., the percent viability and/or mean percent viability). The effect of treating an immortalized sebocyte cell culture with a given composition or compound can be determined by qualitatively assessing, for example and without limitation, morphological changes in the culture. In an embodiment, changes in the morphology of the culture may be classified as: no change (e.g., “normal” population), reduced growth (e.g., “growth reduction”), toxic changes (e.g., “toxicity”), and/or cell death (e.g., “cell mortality”).
The compounds tested in Example 1 were tested to determine the capacity of each to reduce sebum production. In an exemplary method, each compound's ability to inhibit the growth of an immortalized sebocyte cell line was determined.
Primary sebocytes were isolated from sebaceous glands obtained from dissections of human scalp tissue. The primary sebocytes were immortalized and the resulting cell culture was used to study the effects of DGLA and 15-HETrE on sebocyte cell proliferation. Individual cell cultures were treated with eight concentrations of DGLA (1.00 μM, 4.00 μM, […], 37.00 μM, 111.00 μM, 333.00 μM, 1000.00 μM, and 3000.00 μM), and eight concentrations of 15-HETrE (0.50 1.00 4.00 10.00 40.00 110.00 330.00 1000.00). As a positive control, individual cell cultures were treated with eight concentrations of Isotretinoin. Negative control cultures were also maintained. After 72 hours, the mean percent viability for each of the cultures was determined by colorimetry (M.T.T. test) according to J. Mosmann, J. Immunol. Meth., vol. 65, pp. 55-63 (1983), and morphological differences were also observed at that time (see Table 9).

P. acnes = test: Agar dilution method, growth of P. acnes and MIC, single compounds; format: cell-based, Propionibacterium acnes; design: key to Growth Index Plate 1 / Growth Index Plate 2 / Growth Index Plate 3 / Growth Index Avg: +++: confluent growth (comparable to control); ++: less confluent growth; +: marked reduction in growth to multiple tiny, single colonies; −: no growth present; conditions: for MIC: Cutibacterium acnes, compound alone, MIC = concentration with marked reduction (+) of growth, read-out: MIC (mg/mL) as per P-11-0007 or P-11-0008 Addendum A
Experimental: Several compounds including fatty acids such as DGLA, 15-OHEPA, and 15-HETrE were tested to determine their capacity to inhibit the growth of P. acnes. In an exemplary method, an agar dilution method was used to determine the minimum inhibitory concentration (MIC) of each tested compound. Briefly, the agar dilution method involved preparing a series of concentrations of each compound (e.g., nicotinamide, benzoyl peroxide, adapalene, metronidazole, DGLA, 15-OHEPA, and 15-HETrE) in a Reinforced Clostridial Agar (RCA) media that facilitates growth of P. acnes under anaerobic conditions. An inoculum of P. acnes was prepared by incubation of P. acnes for approximately seven days at 35-37° C. to achieve a ≧1.0 OD600 inoculum of P. acnes in RCM broth. A portion of this inoculum was then added to the surface of each plate as a 10 μL spot and incubated at 35-37° C. for 72 hours or more. Growth of P. acnes was then observed and compared to control plates in which no compound has been added, and positive inhibition plates prepared with erythromycin. […] The growth of P. acnes in the presence of nicotinamide, benzoyl peroxide, adapalene, metronidazole, DGLA, 15-OHEPA, and 15-HETrE was determined with varying concentrations of the compound (see, Table 2). Next, the MIC was determined as the concentration at which a marked reduction (+) occurs in the appearance of growth on the test plate (as per Clinical and Laboratory Standards Institute M11-A7).

[2] = system: immortalized sebocyte cell line; test: Sebocyte proliferation: viability (M.T.T. test) and morphology after 72 hours; format: cell-based; conditions: Homo sapiens

CCCCCC(O)/C=C/C=C\C/C=C\CCCCCCC(=O)O (stereo not drawn) [15-HETrE, 15-hydroxy-eicosa-8(Z),11(Z),13(E)-trienoic acid]
Mean % Viability ([1]; 0.5 µM): 85% | Mean % Viability ([1]; 1 µM): 77% | Mean % Viability ([1]; 4 µM): 52% | Morphological Observations ([1]; 4.00 μM, 72 hours): toxicity | Mean % Viability ([1]; 10 µM): 18% | Morphological Observations ([1]; 10.00 μM (10 μM), 72 hours): toxicity | Mean % Viability ([1]; 40 µM): 1% | Mean % Viability ([1]; 110 µM): 1% | Mean % Viability ([1]; 330 µM): 0% | Mean % Viability ([1]; 1000 µM): 0% | effect on growth of P. acnes on its own (P. acnes; 0.01 mg/ml): no effect | Growth Index Avg (P. acnes; compound at 0.00001 mg/mL): +++ | Growth Index Plate 1 (P. acnes; compound at 0.00001 mg/mL): +++ | Growth Index Plate 2 (P. acnes; compound at 0.00001 mg/mL): +++ | Growth Index Plate 3 (P. acnes; compound at 0.00001 mg/mL): +++ | Growth Index Avg (P. acnes; compound at 0.0001 mg/mL): +++ | Growth Index Plate 1 (P. acnes; compound at 0.0001 mg/mL): +++ | Growth Index Plate 2 (P. acnes; compound at 0.0001 mg/mL): +++ | Growth Index Plate 3 (P. acnes; compound at 0.0001 mg/mL): +++ | Growth Index Avg (P. acnes; compound at 0.001 mg/mL): +++ | Growth Index Plate 1 (P. acnes; compound at 0.001 mg/mL): +++ | Growth Index Plate 2 (P. acnes; compound at 0.001 mg/mL): +++ | Growth Index Plate 3 (P. acnes; compound at 0.001 mg/mL): +++ | Growth Index Avg (P. acnes; compound at 0.01 mg/mL): ++ | Growth Index Plate 1 (P. acnes; compound at 0.01 mg/mL): ++ | Growth Index Plate 2 (P. acnes; compound at 0.01 mg/mL): +++ | Growth Index Plate 3 (P. acnes; compound at 0.01 mg/mL): ++ | Growth Index Avg (P. acnes; compound at 0.05 mg/mL): − | Growth Index Plate 1 (P. acnes; compound at 0.05 mg/mL): − | Growth Index Plate 2 (P. acnes; compound at 0.05 mg/mL): − | Growth Index Plate 3 (P. acnes; compound at 0.05 mg/mL): −

CCC=CCC(O)C=CC=CCC=CCC=CCCCC(=O)O (stereo not drawn) [15-OHEPA, 15-Hydroxy-eicosa-5,8,11,13,17-pentaenoic acid]
effect on growth of P. acnes on its own (P. acnes; 0.05 mg/mL): no effect | MIC (P. acnes): 50 to 75 mg/L (≈ 157 to 236 µM) | Growth Index Avg (P. acnes; compound at 0.010 mg/mL): +++ | Growth Index Plate 1 (P. acnes; compound at 0.010 mg/mL): +++ | Growth Index Plate 2 (P. acnes; compound at 0.010 mg/mL): +++ | Growth Index Plate 3 (P. acnes; compound at 0.010 mg/mL): +++ | Growth Index Avg (P. acnes; compound at 0.025 mg/mL): +++ | Growth Index Plate 1 (P. acnes; compound at 0.025 mg/mL): +++ | Growth Index Plate 2 (P. acnes; compound at 0.025 mg/mL): +++ | Growth Index Plate 3 (P. acnes; compound at 0.025 mg/mL): +++ | Growth Index Avg (P. acnes; compound at 0.050 mg/mL): +++ | Growth Index Plate 1 (P. acnes; compound at 0.050 mg/mL): +++ | Growth Index Plate 2 (P. acnes; compound at 0.050 mg/mL): +++ | Growth Index Plate 3 (P. acnes; compound at 0.050 mg/mL): +++ | Growth Index Avg (P. acnes; compound at 0.075 mg/mL): + | Growth Index Plate 1 (P. acnes; compound at 0.075 mg/mL): + | Growth Index Plate 2 (P. acnes; compound at 0.075 mg/mL): + | Growth Index Plate 3 (P. acnes; compound at 0.075 mg/mL): + | Growth Index Avg (P. acnes; compound at 0.1 mg/mL): − | Growth Index Plate 1 (P. acnes; compound at 0.1 mg/mL): − | Growth Index Plate 2 (P. acnes; compound at 0.1 mg/mL): − | Growth Index Plate 3 (P. acnes; compound at 0.1 mg/mL): −

CCCCC/C=C\C/C=C\C/C=C\CCCCCCC(=O)O [DGLA, cis-8,11,14-eicosatrienoic acid]
viability at 1 µM ([1]; Homo sapiens, 1.00 μM, 72 hours): 107% | viability at 4 µM ([1]; Homo sapiens, 4.00 μM, 72 hours): 97% | viability at 37 µM ([1]; Homo sapiens, 37.00 μM, 72 hours): 1% | viability at 111 µM ([1]; Homo sapiens, 111.00 μM, 72 hours): 2% | viability at 333 µM ([1]; Homo sapiens, 333.00 μM, 72 hours): 1% | viability at 1000 µM ([1]; Homo sapiens, 1000.00 μM, 72 hours): 1% | viability at 3000 µM ([1]; Homo sapiens, 3000.00 μM, 72 hours): 3% | viability at 12 µM [2]: 63% | effect on growth of P. acnes on its own (P. acnes; 0.4 mg/ml): no effect | MIC (P. acnes): 400 to 600 mg/L (≈ 1310 to 1960 µM) | Growth Index Avg (P. acnes; compound at 0.2 mg/mL): +++ | Growth Index Plate 1 (P. acnes; compound at 0.2 mg/mL): +++ | Growth Index Plate 2 (P. acnes; compound at 0.2 mg/mL): +++ | Growth Index Plate 3 (P. acnes; compound at 0.2 mg/mL): +++ | Growth Index Avg (P. acnes; compound at 0.4 mg/mL): +++ | Growth Index Plate 1 (P. acnes; compound at 0.4 mg/mL): +++ | Growth Index Plate 2 (P. acnes; compound at 0.4 mg/mL): +++ | Growth Index Plate 3 (P. acnes; compound at 0.4 mg/mL): +++ | Growth Index Avg (P. acnes; compound at 0.6 mg/mL): + | Growth Index Plate 1 (P. acnes; compound at 0.6 mg/mL): ++ | Growth Index Plate 2 (P. acnes; compound at 0.6 mg/mL): − | Growth Index Plate 3 (P. acnes; compound at 0.6 mg/mL): ++ | Growth Index Avg (P. acnes; compound at 0.8 mg/mL): + | Growth Index Plate 1 (P. acnes; compound at 0.8 mg/mL): ++ | Growth Index Plate 2 (P. acnes; compound at 0.8 mg/mL): + | Growth Index Plate 3 (P. acnes; compound at 0.8 mg/mL): + | Growth Index Avg (P. acnes; compound at 1.0 mg/mL): + | Growth Index Plate 1 (P. acnes; compound at 1.0 mg/mL): + | Growth Index Plate 2 (P. acnes; compound at 1.0 mg/mL): + | Growth Index Plate 3 (P. acnes; compound at 1.0 mg/mL): +

CC[C@H]1OC(=O)[C@H](C)[C@@H](O[C@H]2C[C@@](C)(OC)[C@@H](O)[C@H](C)O2)[C@H](C)[C@@H](O[C@@H]2O[C@H](C)C[C@H](N(C)C)[C@H]2O)[C@](C)(O)C[C@@H](C)C(=O)[C@H](C)[C@@H](O)[C@]1(C)O [Erythromycin]
MIC (P. acnes): 0.01 to 0.05 mg/L (≈ 0.0136 to 0.0681 µM)

CC1=C(/C=C/C(C)=C/C=C/C(C)=C\C(=O)O)C(C)(C)CCC1 [Isotretinoin]
Morphological Observations ([1]; 1.11 μM, 72 hours): toxicity | viability at 0.005 µM ([1]; Homo sapiens, 0.005 μM, 72 hours): 105% | viability at 0.014 µM ([1]; Homo sapiens, 0.014 μM, 72 hours): 110% | viability at 0.041 µM ([1]; Homo sapiens, 0.041 μM, 72 hours): 103% | viability at 0.123 µM ([1]; Homo sapiens, 0.123 μM, 72 hours): 96% | viability at 0.37 µM ([1]; Homo sapiens, 0.370 μM, 72 hours): 88% | viability at 1.11 µM ([1]; Homo sapiens, 1.11 μM, 72 hours): 76% | viability at 3.33 µM ([1]; Homo sapiens, 3.33 μM, 72 hours): 8% | viability at 10 µM ([1]; Homo sapiens, 10.00 μM (10 μM), 72 hours): 1%
